Article PMC5138282, “Glyphosate-Resistant Parthenium hysterophorus in the Caribbean Islands: Non Target Site Resistance and Target Site Resistance in Relation to Resistance Levels” (Frontiers in Plant Science, 2016)
Read-outs that look alike come from different tables or passages of the source.

Tests used:
[1] = tested on: 5-enolpyruvylshikimate-3-phosphate synthase (EPSPS), P. hysterophorus accessions from Cuba; settings: read-out: I50 (μM)^a; accession Cu-R1; natural mutant, native extract, other EPSPS alleles/copies not excluded; buffer as for Cu-S; stated gain
Description: phosphate release (EnzCheck phosphate assay kit), leaf extract on 5-enolpyruvylshikimate-3-phosphate synthase (EPSPS), P. hysterophorus accessions from Cuba

[2] = tested on: 5-enolpyruvylshikimate-3-phosphate synthase (EPSPS), P. hysterophorus accessions from Dominican Republic; settings: read-out: I50 (μM)^a, natural mutant, native extract, other EPSPS alleles/copies not excluded, buffer as for Cu-S, stated gain
Description: phosphate release (EnzCheck phosphate assay kit), leaf extract on 5-enolpyruvylshikimate-3-phosphate synthase (EPSPS), P. hysterophorus accessions from Dominican Republic

[3] = tested on: 5-enolpyruvylshikimate-3-phosphate synthase (EPSPS), P. hysterophorus accessions from Dominican Republic; test: phosphate release (EnzCheck phosphate assay kit), leaf extract; assay type: biochemical, Parthenium hysterophorus; settings: buffer as for Cu-S, read-out: I50 (μM)^a
[4] = tested on: 5-enolpyruvylshikimate-3-phosphate synthase (EPSPS), P. hysterophorus accessions from Cuba; test: as above; assay type: biochemical, Parthenium hysterophorus; settings: read-out: I50 (μM)^a

Question: For `O=C(O)CNCP(=O)(O)O` [glyphosate, (N-phosphonomethyl)-glycine], which IC50 [1] is on record?
Answer: Its IC50 is 646 ± 35.8 µM.

Question: What about the IC50 ([2]; accession Do-R1) of the same compound?
Answer: The IC50 was 468 ± 22 µM.

Question: And the IC50 ([2]; accession Do-R2)?
Answer: The IC50 was 411 ± 26.1 µM.

Question: What about the IC50 ([3]; accession Do-R3 (resistant plants, no Pro106 change)) of the same compound?
Answer: Its IC50 is 22.6 ± 1.5 µM.

Question: What about the IC50 ([3]; accession Do-R4 (resistant plants, no Pro106 change)) of the same compound?
Answer: Its IC50 is 20.8 ± 6.1 µM.

Question: What about the IC50 ([3]; accession Do-S (susceptible)) of the same compound?
Answer: The IC50 was 18.5 ± 5.7 µM.

Question: What about the IC50 ([4]; accession Cu-R2 (resistant plants, no Pro106 change), buffer as for Cu-S) of the same compound?
Answer: The IC50 was 18.9 ± 1.4 µM.

Question: What about the IC50 ([4]; accession Cu-R3 (resistant plants, no Pro106 change), buffer as for Cu-S) of the same compound?
Answer: Its IC50 is 17.4 ± 2.8 µM.

Question: And the IC50 ([4]; accession Cu-S (susceptible), 100 mM MOPS, 1 mM MgCl2, 10% glycerol, 2 mM sodium molybdate, 200 mM NaF)?
Answer: The IC50 was 13.6 ± 2.2 µM.
